Patent publication US10323036B2 (Nimbus Lakshmi, Inc., priority 2016, dated 2019)
Like-named read-outs stand apart in the source and are kept apart here.

Columns and labels:
[1] = target: human TYK2 (JH2domain-pseudokinase) (Homo sapiens (Human), UniProt P29597); test: TYK2 JH2 Domain Binding Assay (KINOMEscan); details: read-out: JH2 Kd
GM-CSF induced pSTAT5 = test: GM-CSF Induced pSTAT5 in Human PBMC; assay type: cell-based; details: 5 ng/mL GM-CSF, read-out: IC50 of inhibition of pSTAT5 production
Protocol: Cells are prepared for analysis as in the above procedure and 15 μl of GM-CSF (final concentration 5 ng/mL) is added for 20 minutes prior to pSTAT5 and total STAT5 analysis using cell lysates prepared and analyzed by MSD reagents as per manufacturer protocol. The final DMSO concentration of compound in the assay is 0.1%.

TYK2 JH1 kinase = TYK2 JH1 kinase (Homo sapiens (Human), UniProt P29597); test: Tyk2 Radioactive Kinase Assay; assay type: biochemical; details: ATP at 10 μM
Protocol: (§1) Peptide substrate, [KKSRGDYMTMQIG (SEQ ID NO: 2)], (20 μM) is prepared in reaction buffer (20 mM Hepes pH 7.5, 10 mM MgCl2, 1 mM EGTA, 0.02% Brij35, 0.02 mg/mL BSA, […], 2 mM DTT, 1% DMSO. TYK2 (Invitrogen) kinase is added, followed by compounds in DMSO. 33PATP is added to initiate the reaction in ATP at 10 μM. Kinase reaction is incubated for 120 min at room temp and reactions are spotted onto P81 ion exchange paper (Whatman #3698-915), and then washed extensively in 0.75% phosphoric acid, prior to reading the radioactivity counts. For JAK2 (Invitrogen) kinase assay the peptide substrate poly[Glu:Tyr] (4:1), 0.2 mg/ml is used, in the reaction carried out the same as for TYK2.

JAK2 JH1 kinase = JAK2 JH1 kinase (Homo sapiens (Human), UniProt O60674); test: JAK2 Radioactive Kinase Assay; assay type: biochemical; details: ATP at 10 μM
Protocol: as §1

[2] = Table 5, Tyk2 JH2 Domain Binding Assay

TYK2 JH1 kinase, sequence (P29597 833-1187): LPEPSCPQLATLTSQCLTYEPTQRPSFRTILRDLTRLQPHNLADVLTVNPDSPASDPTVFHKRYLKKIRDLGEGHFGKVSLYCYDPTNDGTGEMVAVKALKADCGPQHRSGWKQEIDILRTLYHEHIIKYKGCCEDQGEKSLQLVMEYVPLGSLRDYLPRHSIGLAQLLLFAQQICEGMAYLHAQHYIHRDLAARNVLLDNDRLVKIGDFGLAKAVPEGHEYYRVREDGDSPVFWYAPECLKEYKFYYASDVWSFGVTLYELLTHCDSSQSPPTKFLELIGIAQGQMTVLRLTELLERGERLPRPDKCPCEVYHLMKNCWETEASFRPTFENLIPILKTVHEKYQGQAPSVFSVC
JAK2 JH1 kinase, sequence (O60674 808-1132): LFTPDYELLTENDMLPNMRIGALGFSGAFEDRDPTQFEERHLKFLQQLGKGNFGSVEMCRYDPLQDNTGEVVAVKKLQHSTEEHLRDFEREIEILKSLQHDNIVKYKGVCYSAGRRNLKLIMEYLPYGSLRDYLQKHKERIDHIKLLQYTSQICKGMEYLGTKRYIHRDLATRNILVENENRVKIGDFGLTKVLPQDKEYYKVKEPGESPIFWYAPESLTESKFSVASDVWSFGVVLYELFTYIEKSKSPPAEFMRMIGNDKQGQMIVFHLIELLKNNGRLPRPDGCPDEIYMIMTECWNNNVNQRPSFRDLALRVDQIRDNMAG
human TYK2 (JH2domain-pseudokinase), sequence (P29597 556-888): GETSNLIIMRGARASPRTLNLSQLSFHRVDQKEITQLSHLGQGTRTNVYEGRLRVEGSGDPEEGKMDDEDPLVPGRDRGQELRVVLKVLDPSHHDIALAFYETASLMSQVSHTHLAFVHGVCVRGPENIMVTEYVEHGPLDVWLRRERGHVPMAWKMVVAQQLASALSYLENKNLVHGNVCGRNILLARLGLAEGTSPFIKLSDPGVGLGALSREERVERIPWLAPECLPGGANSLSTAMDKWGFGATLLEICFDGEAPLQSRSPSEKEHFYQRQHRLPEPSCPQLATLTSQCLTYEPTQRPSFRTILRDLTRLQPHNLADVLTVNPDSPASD

Row | Structure (SMILES) | Kd [1, 2] | IC50 (GM-CSF induced pSTAT5) | inhibitory activity against TYK2 JH1 kinase function (TYK2 JH1 kinase) | Kd ([1]; Table 4, JH2 binding assay) | inhibitory activity against JAK2 JH1 kinase function (JAK2 JH1 kinase)
1 | COc1c(Nc2cc(NC(=O)C3CC3)ncc2-c2ncc(Cl)s2)cccc1-c1nnn(C)n1 [VIII-1, N-(5-(5-chlorothiazol-2-yl)-4-((2-methoxy-3-(2-methyl-2H-tetrazol-5-yl)phenyl)amino)pyridin-2-yl)cyclopropanecarboxamide] | 1 to 10 nM | > 50000 nM | – | – | –
2 | COCc1ccnc(Nc2cc(Nc3cccc(-c4nnn(C)n4)c3OC)c3c(=O)n(C)[nH]c3n2)c1 [Compound I-2, 4-((2-methoxy-3-(2-methyl-2H-tetrazol-5-yl)phenyl)amino)-6-((4-(methoxymethyl)pyridin-2-yl)amino)-2-methyl-1,2-dihydro-3H-pyrazolo[3,4-b]pyridin-3-one] | – | – | no detectable inhibitory activity | 0.1 to 0.5 nM | –
3 | COc1c(Nc2cc(NC(=O)C3CC3)ncc2-c2nnc(C(F)(F)F)o2)cccc1-c1ncn(C)n1 [VIII-3, N-(4-((2-methoxy-3-(1-methyl-1H-1,2,4-triazol-3-yl)phenyl)amino)-5-(5-(trifluoromethyl)-1,3,4-oxadiazol-2-yl)pyridin-2-yl)cyclopropanecarboxamide] | > 100 nM | – | no detectable inhibitory activity | – | no detectable inhibitory activity
4 | COc1c(Nc2cc(NC(=O)C3CC3)nc3[nH]n(C)c(=O)c23)cccc1-c1nnn(C)n1 [Compound I-1] | – | – | no detectable inhibitory activity | < 0.1 nM | –
5 | COc1c(Nc2cc(NC(=O)C3CC3)ncc2-c2ncc(F)s2)cccc1-c1nnn(C)n1 [VIII-2, N-(5-(5-fluorothiazol-2-yl)-4-((2-methoxy-3-(2-methyl-2H-tetrazol-5-yl)phenyl)amino)pyridin-2-yl)cyclopropanecarboxamide] | 10 to 100 nM | – | no detectable inhibitory activity | – | no detectable inhibitory activity
6 | COC(=O)c1nnc(-c2cnc(NC(=O)C3CC3)cc2Nc2cccc(-c3ncn(C)n3)c2OC)o1 [VIII-4, methyl 5-(6-(cyclopropanecarboxamido)-4-((2-methoxy-3-(1-methyl-1H-1,2,4-triazol-3-yl)phenyl)amino)pyridin-3-yl)-1,3,4-oxadiazole-2-carboxylate] | 1 to 10 nM | – | no detectable inhibitory activity | – | no detectable inhibitory activity
7 | Cn1[nH]c2nc(Nc3ccc(N4CCCCC4)cn3)cc(Nc3ccccc3S(C)(=O)=O)c2c1=O [Compound I-118, 2-methyl-4-((2-(methylsulfonyl)phenyl)amino)-6-((5-(piperidin-1-yl)pyridin-2-yl)amino)-1,2-dihydro-3H-pyrazolo[3,4-b]pyridin-3-one] | – | – | – | > 10 nM | –
8 | COc1c(Nc2cc(NC(=O)C3CC3)nc3[nH]n(C)c(=O)c23)cccc1-c1nc(C)n(C)n1 [Compound I-53] | – | – | – | 0.1 to 0.5 nM | –
